Data published in ChEMBL document CHEMBL2311297 (Bioorg Med Chem Lett, 2013).
pIC50: −log10 of the molar value. Calls of active or inactive are those of the source. The calls are words filed in the database; no cut-off is given here.

Tests used:
[1] = molecular target: Myc proto-oncogene protein (Homo sapiens, UniProt P01106); test: Inhibition of recombinant His6-tagged c-Myc bHLH-ZIP domain (353 to 437 amino acid residues) (unknown origin) assessed as disruption of Myc-Max dimerization at 100 uM by electrophoretic mobility shift assay relative to control
[2] = test system: HL-60; test: Cytotoxicity against human HL60 cells assessed as growth inhibition after 3 to 5 days by MTT assay
[3] = test system: Daudi; test: Cytotoxicity against human Daudi cells assessed as growth inhibition after 3 to 5 days by MTT assay
[4] = Binding affinity to 5'-HEX-tagged double standard 22 bp 5'-hexachlorofluoresceine-CACCCGGTCACGTGGCCTACAC-3' (unknown origin) by PAGE analysis
[5] = molecular target: Protein max (Homo sapiens, UniProt P61244); test: Inhibition of His6-tagged Max (151 amino acid residues) (unknown origin) assessed as disruption of Max-Max dimerization by electrophoretic mobility shift assay
Sequence of Protein max (P61244 whole entry): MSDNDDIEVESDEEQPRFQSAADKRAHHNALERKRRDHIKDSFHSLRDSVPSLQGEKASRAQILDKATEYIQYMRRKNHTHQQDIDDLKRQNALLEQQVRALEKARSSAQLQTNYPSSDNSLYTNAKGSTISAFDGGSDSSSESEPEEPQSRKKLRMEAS

Sequence of Myc proto-oncogene protein (P01106 whole entry, the tested form may be a part): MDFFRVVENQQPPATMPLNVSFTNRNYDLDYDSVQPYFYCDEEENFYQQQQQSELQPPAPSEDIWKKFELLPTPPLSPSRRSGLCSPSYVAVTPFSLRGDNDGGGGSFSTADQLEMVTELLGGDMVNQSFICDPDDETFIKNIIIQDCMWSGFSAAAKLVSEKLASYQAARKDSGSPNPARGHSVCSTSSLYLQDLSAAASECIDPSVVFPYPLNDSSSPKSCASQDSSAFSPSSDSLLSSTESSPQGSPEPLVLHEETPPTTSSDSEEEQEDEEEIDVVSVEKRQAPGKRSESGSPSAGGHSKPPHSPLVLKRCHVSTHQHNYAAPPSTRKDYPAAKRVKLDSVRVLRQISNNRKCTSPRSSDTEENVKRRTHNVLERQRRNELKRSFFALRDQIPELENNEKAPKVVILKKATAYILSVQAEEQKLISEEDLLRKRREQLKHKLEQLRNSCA

## CC(=O)Nc1ccc(Nc2ccccc2-c2ccccc2)c2nonc12
[1]
  inhibition: 2%

## O=[N+]([O-])c1ccc(NC2CCCCC2)c2nonc12
[1]
  inhibition: 11%

## O=[N+]([O-])c1ccc(Nc2cccc(-c3ccccc3)c2)c2nonc12
[1]
  inhibition: 20%

## O=[N+]([O-])c1ccc(Oc2ccccc2-c2ccccc2)c2nonc12
[1]
  inhibition: 36%

## O=[N+]([O-])c1ccc(Nc2ccccc2O)c2nonc12
[1]
  inhibition: 13%

## COc1ccccc1Nc1ccc([N+](=O)[O-])c2nonc12
[1]
  inhibition: 0%

## O=[N+]([O-])c1ccc(Nc2ccccc2-c2ccccc2)c2nonc12
[2]
  pIC50: 4.52
[3]
  pIC50: 5.00
[1]
  inhibition: 38%

## O=C(O)c1ccccc1Nc1ccc([N+](=O)[O-])c2nonc12
[1]
  inhibition: 8%

## O=C(O)COCC(=O)Nc1ccc(Nc2ccccc2-c2ccccc2)c2nonc12
[1]
  inhibition: 33%

## O=C(O)c1ccc(Nc2ccc([N+](=O)[O-])c3nonc23)cc1
[4]
  Activity: inactive
[5]
  pIC50: < 4.00
[2]
  pIC50: 3.74
[3]
  pIC50: 4.25
[1]
  inhibition: 93%

## O=C(O)CCC(=O)Nc1ccc(Nc2ccccc2-c2ccccc2)c2nonc12
[1]
  inhibition: 17%

## O=[N+]([O-])c1ccc(NCc2ccccc2)c2nonc12
[1]
  inhibition: 0%

## O=C(O)c1cccc(Nc2ccc([N+](=O)[O-])c3nonc23)c1
[1]
  inhibition: 0%

## O=[N+]([O-])c1ccc(Nc2ccccc2-c2ccccc2)cc1
[1]
  inhibition: 0%

## O=C(Nc1ccc(Nc2ccccc2-c2ccccc2)c2nonc12)C(F)(F)F
[1]
  inhibition: 25%

## COC(=O)Nc1ccc(Nc2ccccc2-c2ccccc2)c2nonc12
[1]
  inhibition: 0%

## O=[N+]([O-])c1ccc(Nc2ccccc2)c2nonc12
[1]
  inhibition: 2%

## O=[N+]([O-])c1ccc(Nc2ccccc2Br)c2nonc12
[1]
  inhibition: 39%

## O=[N+]([O-])c1ccc(Nc2ccc(-c3ccccc3)cc2)c2nonc12
[1]
  inhibition: 28%

## Cc1ccccc1Nc1ccc([N+](=O)[O-])c2nonc12
[1]
  inhibition: 11%

## Cc1ccc(Nc2ccc([N+](=O)[O-])c3nonc23)cc1
[1]
  inhibition: 0%

## O=[N+]([O-])c1ccc(N2CCCCC2)c2nonc12
[1]
  inhibition: 10%
